Measurements taken from paper PMC12654037, “Norditerpene Natural Products from Subterranean Fungi with Anti-Parasitic Activity” (Microorganisms, 2025).
Where two headings read alike, the source gives them in different places.

Legend:
HFF cells = experiment: HFF cytotoxicity assay; format: cell-based
Procedure: HCT-8 and HFF cytotoxicity assays: Cytotoxicity of the compounds was determined against both confluent (the conditions of the infection assays) and growing HCT-8 and HFF host cells, as previously described. Cells were seeded into white-sided, clear-bottom 96-well plates and grown to either 40% or 100% confluency. Compounds were added to cells at various concentrations up to 100 µM in a final DMSO concentration of 0.5%. DMSO was run in parallel as a vehicle control. After 48 h, the viability of the cells was determined by either quantification of cellular ATP (Cell-Titer Glo cell viability assay; Promega, Madison WI, USA) or by MTT assay. Viability was determined 24 h after compound addition to HFF cells or 48 h after compound addition to HCT-8 cells or HepG2 cells. The percent cell growth was then calculated with the following formula: % Cell Growth = [RLUcompound/RLUDMSO] × 100. Samples were run in triplicate with two to three biological replicates.

C. parvum = C. parvum growth inhibition assay (Cp-NLuc-infected HCT-8 cells); format: cell-based, Cryptosporidium parvum; details: Cryptosporidium parvum
Procedure: C. parvum growth inhibition assays: The in vitro growth inhibition assay of C. parvum has been previously described. Briefly, clear-bottom, white-sided 96 well plates were seeded with HCT-8 cells. Once the cells reached between 50% and 75% confluency, they were infected with Cp-NLuc oocysts (10,000/well) in complete media containing 0.6% taurocholate. At 24 h post-infection (hpi), the infected cells were treated with compounds at various concentrations. DMSO was used as a vehicle control in parallel. Parasite growth was determined at 72 hpi by measuring relative luminescence units (RLUs) using Promega Nano-Glo substrate (Promega, Madison, WI, USA) and a SpectraMax® L Microplate Reader (Molecular Devices, San Jose, CA, USA). The percent inhibition of parasite growth was calculated as [(RLUDMSO − RLUcompound)/RLUDMSO] × 100.

[1] = test system: C. parvum intracellular stages; experiment: C. parvum immunofluorescence assay; format: cell-based, Cryptosporidium parvum; details: 7.5 µM, 20 h
Procedure: C. parvum and T. gondii immunofluorescence assays (IFAs): IFAs were conducted as previously described with modifications. For C. parvum IFAs, HCT-8 cells were seeded on 4-well chamber cell culture glass slides (CELLTREAT Scientific Product, Pepperell, MA, USA). At confluency, the cell monolayers were infected with 5 × 10^5 wild-type (WT) C. parvum oocysts prepared as previously described. Slides were spun at 1000 rpm for 3 min to allow oocysts to have full contact with the cell monolayers. At 4 hpi, 7.5 µM oidiolactone A or DMSO control, diluted in medium containing 0.6% taurocholic acid, was added to the infected cells for 20 h. At 24 hpi, the slides were fixed with 4% paraformaldehyde and permeabilized with 0.25% Triton-X. The slides were then blocked with 10% goat serum in 1x PBS. C. parvum intracellular stages were visualized with Sporo-glo (Waterborne inc., New Orleans, LA, USA). The slides were mounted using VECTASHIELD® PLUS Antifade Mounting Medium with DAPI (Vector Laboratories, Inc., Newark CA, USA). Representative images of the samples were taken using the Nikon AX R confocal microscope and Nikon Elements acquisition software. Image processing was performed using Fiji v1.54p.

[2] = Microsomal stability assay, human; details: microsomes, pH 7.4
Procedure: Microsomal stability assay. The in vitro microsomal stability assay was conducted in duplicate in commercially available mouse or human liver microsomes (Sekisui XenoTech, Kansas City, KS, USA), which were supplemented with nicotinamide adenine dinucleotide phosphate (NADPH) as a cofactor. […] The reaction was initiated by the addition of 1 mmol/L NADPH, followed by incubation at 37 °C. A negative control was performed in parallel without NADPH to reveal any chemical instability or non-NADPH dependent enzymatic degradation for each compound. […] At various time points (0, 5, 15, 30, and 60 min), a 40 µL of reaction aliquot was taken and quenched with 120 µL of acetonitrile containing 0.1% formic acid. The samples were then vortexed and centrifuged at 15,000 rpm for 5 min at 4 °C. The supernatants were collected and analyzed by LC-MS/MS to determine the in vitro metabolic half-life (t1/2).

in vitro = in vitro ADME; details: plasma
Procedure: Plasma stability assay. The plasma stability assay was performed in duplicate by incubating each selected compound (1 µmol/L final concentration) in normal mouse (CD-1) or human plasma (Innovative Research, Novi, MI, USA) at 37 °C.

[3] = test system: T. gondii intracellular stages; experiment: T. gondii immunofluorescence assay; format: cell-based, Toxoplasma gondii; details: 7.5 µM, 24 h
Procedure: For T. gondii IFAs, confluent HFF cells in 4-well chamber cell culture glass slides were infected with either 5 × 10^4 or 1 × 10^5 parasites/mL. At 6 hpi, 7.5 µM oidiolactone A or DMSO control was diluted in culture medium and added to the slides for 24 h. The slides were then fixed with 4% paraformaldehyde and permeabilized with 0.25% Triton-X. The slides were blocked with 3% goat serum in 0.25% Triton-X. The parasites were visualized with anti-T. gondii SAG1 and Alexa Fluor 594 goat anti-rabbit antibody. The slides were mounted, and images were acquired as described above and processed with NIS Elements GA3 (general analysis 3).

T. gondii = T. gondii growth inhibition assay (TgRH-Luc:GFP-infected HFF cells); format: cell-based; details: Toxoplasma gondii, 10 µM to 156 nM, Figure 2E
Procedure: T. gondii growth inhibition assays: The T. gondii inhibition assay was described previously. Briefly, HFF cells were seeded onto white-sided, clear-bottom 96 well plates, grown to confluence, and then 5000 TgRH-Luc:GFP parasites were added to each well. At 24 hpi, compounds or DMSO were added. The growth of the parasites was determined by relative luminescence at 48 hpi using Promega Bright-Glo (Promega, Madison, WI, USA) substrate. Plates were read, and the percent inhibition of parasite growth was calculated as described above. Determination of -static versus -cidal activity was conducted as indicated above, with parasite growth quantified after 48 h of infection. Each sample was run in triplicate, and each experiment was repeated three times.

Cp-NLuc = experiment: C. parvum -static versus -cidal washout assay; format: cell-based, Cryptosporidium parvum
Procedure: To determine -static versus -cidal activity, the infection assay was conducted as described, but infected cells were treated with compounds for 30 min up to 24 h. The compounds were removed after the designated times, and infection was quantified at 72 h post-infection. To determine the activity of the compounds against asexual and sexual stages of the parasite, compounds were added for 4 h windows at times corresponding to asexual or sexual development. Parasite proliferation was then determined at 72 h post-infection. For all assays, each sample was run in triplicate, and three biological replicates were performed.

For `CO[C@H]1OC(=O)C=C2[C@@]13O[C@@H]3[C@H]1OC(=O)[C@@]3(C)CCC[C@@]2(C)[C@@H]13` [compound 1, oidiolactone A], the “TC50 HFF (confluent)” value (HFF cells; confluent) was over 30000 nM, the “toxicity to host cells (no toxicity up to)” value (HFF cells; confluent HFF, conditions of the infection assay, 24 h, cellular ATP) was over 100 µM and the “cytotoxicity against sub-confluent HFF” value (HFF cells; sub-confluent) was “no cytotoxicity observed”. The EC50 (C. parvum; HCT-8, read-out: EC50 against C. parvum) was 530 nM, the EC50 (C. parvum; Cp-NLuc-infected HCT-8 cells, 7.5 µM to 117 nM, Figure 2E, read-out: C. parvum EC50) was 529 nM and the “abundance of treated C. parvum parasites by IFA” value [1] was “much lower abundances”. It also gave a half-life at 1 µmol/L [2] of 5.29 ± 0.278 h, a half-life at 1 µmol/L (in vitro; CD-1, mouse, 1 µmol/L, 37 °C, mean ± SD, read-out: Mouse Plasma Stability t½) of 1.76 ± 0.0283 h and a half-life at 1 µmol/L (in vitro; CD-1, mouse, discussion, read-out: half-life in mouse blood plasma) of under 2 h. The half-life at 1 µmol/L (in vitro; human, 37 °C, mean ± SD, read-out: Human Plasma Stability t½) was 0.2917 ± 0.00167 h, the “abundance of treated T. gondii parasites by IFA” value [3] was “much lower abundances” and the EC50 (T. gondii) was 1630 nM. For the same molecule, the EC90 (Cp-NLuc; Cryptosporidium parvum) was 7500 nM and the “treatment time after which C. parvum did not recover (killing time)” value (Cp-NLuc; at EC90 7.5 µM, compound washed out, read 72 h post-infection) was 8 to 12 h.
